Values of other authors in patent publication US11717481B2, “Reduction of flake-like aggregation in nanoparticulate active agent compositions” (Alkermes Pharma Ireland Limited, priority 2009, dated 2023).

Cc1cnc(NC(=O)C2=C(O)c3ccccc3S(=O)(=O)N2C)s1 [Meloxicam, 4-hydroxy-2-methyl-N-(5-methyl-2-thiazolyl)-2H-1,2-benzothiazine-3-carboxamide-1,1-dioxide]
solubility in water: Practically insoluble
